According to patent US9149038B2, “4-amino-6-(heterocyclic)picolinates and 6-amino-2-(heterocyclic)pyrimidine-4-carboxylates and their use as herbicides” (Dow AgroSciences LLC, priority 2013, dated 2015):
Read-outs that look alike come from different tables or passages of the source.

How the values were obtained:
[1] = test system: Key Broadleaf Weed and Crop Species; test: Post-Emergent Test II: postemergent herbicidal activity, visual rating after 14 d (Table 7); assay type: in vivo; conditions: post-emergence, 336 h; for pest or weed control at 35 g/ha: 35 g ai/ha; for pest or weed control at 70 g/ha: 70 g ai/ha; for pest or weed control at 140 g/ha: 140 g ai/ha; for pest or weed control at 280 g/ha: 280 g ai/ha
Outline: (§1)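 Visual scoring at 14 d, 0 (no injury) to 100 (complete kill), relative to untreated plants. Postemergent overhead track-sprayer application, 187 L/ha, at a top rate plus serial ½×–1/16× rates, to plants grown 7–21 d at about 23–29° C day under a 15 h photoperiod, then subirrigated.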

[2] = test system: Key Grass and Sedge Weeds as well as Grass Crops; test: Post-Emergent Test II: postemergent herbicidal activity, visual rating after 14 d (Table 8); assay type: in vivo; conditions: post-emergence, 336 h; for pest or weed control at 35 g/ha: 35 g ai/ha; for pest or weed control at 70 g/ha: 70 g ai/ha; for pest or weed control at 140 g/ha: 140 g ai/ha; for pest or weed control at 280 g/ha: 280 g ai/ha
Outline: as §1

[3] = lambsquarters (Chenopodium album), read-out: Visual Growth Reduction (%) 14 Days After Application CHEAL
[4] = oilseed rape, canola (Brassica napus), read-out: Visual Growth Reduction (%) 14 Days After Application BRSNN
[5] = redroot pigweed (Amaranthus retroflexus), read-out: Visual Growth Reduction (%) 14 Days After Application AMARE
[6] = sunflower (Helianthus annuus), read-out: Visual Growth Reduction (%) 14 Days After Application HELAN
[7] = velvetleaf (Abutilon theophrasti), read-out: Visual Growth Reduction (%) 14 Days After Application ABUTH
[8] = wild poinsettia (Euphorbia heterophylla), read-out: Visual Growth Reduction (%) 14 Days After Application EPHHL
[9] = barnyardgrass (Echinochloa crus-galli), read-out: Visual Growth Reduction (%) 14 Days After Application ECHCG
[10] = giant foxtail (Setaria faberi), read-out: Visual Growth Reduction (%) 14 Days After Application SETFA
[11] = maize, corn (Zea mays), read-out: Visual Growth Reduction (%) 14 Days After Application ZEAMX
[12] = rice (Oryza sativa), read-out: Visual Growth Reduction (%) 14 Days After Application ORYSA
[13] = wheat, spring (Triticum aestivum), read-out: Visual Growth Reduction (%) 14 Days After Application TRZAS
[14] = yellow nutsedge (Cyperus esculentus), read-out: Visual Growth Reduction (%) 14 Days After Application CYPES

## Nc1c(F)c(-c2cccc3c2OCO3)nc(C(=O)O)c1Cl [Compound 72, 4-Amino-6-(benzo[d][1,3]dioxol-4-yl)-3-chloro-5-fluoropicolinic acid]
[1]; [3]
  pest or weed control at 35 g/ha: 95 to 100%
  pest or weed control at 70 g/ha: 95 to 100%
  pest or weed control at 140 g/ha: 95 to 100%
  pest or weed control at 280 g/ha: 95 to 100%
[1]; [4]
  pest or weed control at 35 g/ha: 75 to 84%
  pest or weed control at 70 g/ha: 95 to 100%
  pest or weed control at 140 g/ha: 95 to 100%
  pest or weed control at 280 g/ha: 95 to 100%
[1]; [5]
  pest or weed control at 35 g/ha: 95 to 100%
  pest or weed control at 70 g/ha: 95 to 100%
  pest or weed control at 140 g/ha: 95 to 100%
  pest or weed control at 280 g/ha: 95 to 100%
[1]; [6]
  pest or weed control at 35 g/ha: 95 to 100%
  pest or weed control at 70 g/ha: 95 to 100%
  pest or weed control at 140 g/ha: 95 to 100%
  pest or weed control at 280 g/ha: 95 to 100%
[1]; [7]
  pest or weed control at 35 g/ha: 75 to 84%
  pest or weed control at 70 g/ha: 95 to 100%
  pest or weed control at 140 g/ha: 95 to 100%
  pest or weed control at 280 g/ha: 95 to 100%
[1]; [8]
  pest or weed control at 35 g/ha: 0 to 29%
  pest or weed control at 70 g/ha: 0 to 29%
  pest or weed control at 140 g/ha: 0 to 29%
  pest or weed control at 280 g/ha: 0 to 29%
[2]; [9]
  pest or weed control at 35 g/ha: 0 to 29%
  pest or weed control at 70 g/ha: 0 to 29%
  pest or weed control at 140 g/ha: 0 to 29%
  pest or weed control at 280 g/ha: 0 to 29%
[2]; [10]
  pest or weed control at 35 g/ha: 0 to 29%
  pest or weed control at 70 g/ha: 0 to 29%
  pest or weed control at 140 g/ha: 0 to 29%
  pest or weed control at 280 g/ha: 0 to 29%
[2]; [11]
  pest or weed control at 35 g/ha: 0 to 29%
  pest or weed control at 70 g/ha: 0 to 29%
  pest or weed control at 140 g/ha: 0 to 29%
  pest or weed control at 280 g/ha: 0 to 29%
[2]; [12]
  pest or weed control at 35 g/ha: 0 to 29%
  pest or weed control at 70 g/ha: 0 to 29%
  pest or weed control at 140 g/ha: 0 to 29%
  pest or weed control at 280 g/ha: 0 to 29%
[2]; [13]
  pest or weed control at 35 g/ha: 0 to 29%
  pest or weed control at 70 g/ha: 0 to 29%
  pest or weed control at 140 g/ha: 0 to 29%
  pest or weed control at 280 g/ha: 0 to 29%
[2]; [14]
  pest or weed control at 35 g/ha: 0 to 29%
  pest or weed control at 70 g/ha: 0 to 29%
  pest or weed control at 140 g/ha: 0 to 29%
  pest or weed control at 280 g/ha: 0 to 29%
